Data taken from patent EP4786487A1, “PEPTIDE” (Peptidream Inc, priority 2023, dated 2025).
Where two headings read alike, the source gives them in different places. Starred links: 1 amine or outer side, 2 acyl side, 3 side chain; linkers in the order of their positions; H or OH if unused. Positions of bridges follow the written chain, without caps; N, C: chain ends. Non-standard residues stand in square brackets, D forms with d. Residues, ends and D or L forms follow the SMILES beside them. Groups on a side chain read outwards from the residue. *: point of attachment. X6 = CS(=O)(=O)c1ccc(-c2ccc(C[C@H](N[*:1])C(=O)[*:2])cc2)cc1; Phe(3-OCH2COOH) = N[C@@H](Cc1cccc(OCC(=O)O)c1)C(=O)O; Trp(1-Ph) = N[C@@H](Cc1cn(-c2ccccc2)c2ccccc12)C(=O)O; X11 = O=C([C@H](Cc1ccc(-c2ccccc2Cl)cc1)N[*:1])[*:2]; Piperidine(4-CH2CH2CONH2) = NC(=O)CCC1CCN(*)CC1; Trp(6-OH) = N[C@@H](Cc1c[nH]c2cc(O)ccc12)C(=O)O; Phe(4-COOH) = N[C@@H](Cc1ccc(C(=O)O)cc1)C(=O)O; Piperazinyl(4-CH2COOH) = O=C(O)CN1CCN(*)CC1; Piperidinyl(4-CH2COOH) = O=C(O)CC1CCN(*)CC1; Gly(Nα-CH2CH2CONH2) = NC(=O)CCNCC(=O)O; Gly(decyl) = CCCCCCCCCC[C@H](N)C(=O)O; Gly(N(CH2)3COOH) = O=C(O)CCCNCC(=O)O; X1 = CCCCCCC[C@H](N[*:1])C(=O)[*:2]; NMeF = CN[C@@H](Cc1ccccc1)C(=O)O; NMeE = CN[C@@H](CCC(=O)O)C(=O)O; Cha = N[C@@H](CC1CCCCC1)C(=O)O; Ahp(2) = CCCCC[C@H](N)C(=O)O; NMeC = CN[C@@H](CS)C(=O)O; NMeA = CN[C@@H](C)C(=O)O; CO = O=C([*:1])[*:2]; Sar = CNCC(=O)O

Tests used:
[1] = biological target: T1, Myostatin (Homo sapiens, UniProt O14793); experiment: HepG2 reporter gene assay, Evaluation Procedure (2): 2-concentrations assay, myostatin inhibition; format: cell-based
T1 construct: active myostatin (also called mature myostatin) is a homodimer consisting of two C-terminal growth factor domains; purchased R&D systems 788-G8/CF
T1 sequence (O14793 267-375): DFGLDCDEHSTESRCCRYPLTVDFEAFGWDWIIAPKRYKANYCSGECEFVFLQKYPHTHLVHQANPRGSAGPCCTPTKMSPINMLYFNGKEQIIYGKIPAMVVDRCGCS
Method: (§1) The pGL3(CAGA)12-luc plasmid, namely a pGL3 vector (E1751, Promega) having a luciferase gene inserted downstream of a promoter sequence with 12 CAGA repeats attached, was transfected into HepG2 cell line (HB-8065, ATCC). The culture of HepG2 cell line (HB-8065, ATCC) was performed as in the Evaluation Procedure (1).
(§2) Myostatin (788-G8/CF, R&D systems) or GDF-11 (1958-GD-G8/CF, R&D systems) was added at a final concentration of 10 ng/mL. […] At this time, blank wells, in which neither myostatin, GDF-11, nor each peptide was added, were also prepared and incubated in a CO2 incubator (37°C, 5% CO2) for 20 to 24 hours.
(§3) The medium containing the cells was removed, and a mixture containing PBS (14190144, Thermo) and a chromogenic substrate One-Glo Luciferase Assay System (E6120, Promega) at a ratio of 1:1 was added to each well at 100 µL/well. This was stirred with a plate shaker for 5 min and transferred to a 384-well plate (3570, Corning) at a volume of 20 µL/well.
(§4) The plate was centrifuged at 1,000 × g for 1 min and the luminescence signal (700 nm luminescence) was measured using a plate reader (Envision 2104, PerkinElmer). Based on the measurement results, the inhibition rate at each peptide concentration was calculated. […]

[2] = biological target: T2, GDF-11 (Homo sapiens, UniProt O95390); experiment: HepG2 reporter gene assay, Evaluation Procedure (2): 2-concentrations assay, GDF-11 inhibition; format: cell-based; conditions: for inhibition at 0.03 µM: HepG2, peptide 30nM, read-out: GDF11 Inhibition 30nM; for inhibition at 0.03 µM / inhibition at 0.1 µM: GDF-11 10 ng/mL; for inhibition at 0.1 µM: HepG2, peptide 100nM, read-out: GDF11 Inhibition 100nM
T2 construct: purchased R&D systems 1958-GD-G8/CF
T2 sequence (O95390 299-407): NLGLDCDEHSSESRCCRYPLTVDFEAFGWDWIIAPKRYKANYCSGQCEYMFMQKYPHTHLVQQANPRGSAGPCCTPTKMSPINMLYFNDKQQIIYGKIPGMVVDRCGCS
Method: as §1, §2, §3, §4

[3] = Table 7-3/7-4, myostatin 10 ng/mL, peptide at the higher of the 2 concentrations, HepG2, read-out: inhibition rate (myostatin inhibition assay)
[4] = Table 7-3/7-4, myostatin 10 ng/mL, peptide at the lower of the 2 concentrations, HepG2, read-out: inhibition rate (myostatin inhibition assay)
[5] = HepG2, first GDF-11 column of Table 7-3/7-4, GDF-11 10 ng/mL, peptide at the lower of the 2 concentrations, read-out: inhibition rate (GDF-11 inhibition assay)
[6] = HepG2, second GDF-11 column of Table 7-3/7-4, GDF-11 10 ng/mL, peptide at the higher of the 2 concentrations, read-out: inhibition rate (GDF-11 inhibition assay)
[7] = peptide 30nM, Myostatin 10 ng/mL, HepG2, read-out: Myostatin Inhibition 30nM
[8] = peptide 100nM, Myostatin 10 ng/mL, HepG2, read-out: Myostatin Inhibition 100nM
[9] = HepG2, read-out: inhibition rate (myostatin inhibition assay)

Row | SMILES | inhibition at 0.1 µM [1, 3] [%] | inhibition at 0.03 µM [1, 4] [%] | inhibition [2, 5] [%] | inhibition [2, 6] [%] | inhibition at 0.03 µM [1, 7] [%] | inhibition at 0.1 µM [1, 8] [%] | inhibition at 0.03 µM [2] [%] | inhibition at 0.1 µM [2] [%] | also measured
1 | CCCCCCC[C@@H]1NC(=O)[C@H](Cc2ccccc2)N(C)C(=O)[C@H](CCCNC(=N)N)NC(=O)[C@H](Cc2ccc(C(=O)O)cc2)NC(=O)[C@H](Cc2ccc(-c3ccccc3Cl)cc2)NC(=O)CN(C)C(=O)[C@H]([C@@H](C)CC)NC(=O)[C@H](Cc2ccccc2)N(C)C(=O)[C@H](Cc2ccc(O)cc2)NC(=O)[C@H](Cc2c[nH]c3cc(O)ccc23)NC(=O)[C@H](C)NC(=O)[C@H](C)NC(=O)CSC[C@H](C(=O)N2CCN(CC(=O)O)CC2)NC(=O)[C@H](Cc2ccccc2)N(C)C(=O)[C@H](CCC(=O)O)N(C)C1=O [Myostatin_99_v325] ({CH2CO}-AA[Trp(6-OH)]Y[NMeF]I[Sar][X11][Phe(4-COOH)]R[NMeF][X1][NMeE][NMeF][dC]-{Piperazinyl(4-CH2COOH)}; thioether N-15) | 100 | 100 | 49 | 86 | – | – | – | – | –
2 | CCCCCCC[C@@H]1NC(=O)[C@H](Cc2ccccc2)N(C)C(=O)[C@H](CCCNC(=N)N)NC(=O)[C@H](Cc2ccc(C(=O)O)cc2)NC(=O)[C@H](Cc2cccc(OCC(=O)O)c2)NC(=O)[C@H](C)N(C)C(=O)[C@H]([C@@H](C)CC)NC(=O)[C@H](Cc2ccccc2)N(C)C(=O)[C@H](Cc2ccc(O)cc2)NC(=O)[C@H](Cc2cn(-c3ccccc3)c3ccccc23)NC(=O)[C@H](C)NC(=O)CN(CCCC(=O)O)C(=O)CSC[C@H](C(=O)O)NC(=O)[C@H](Cc2ccccc2)N(C)C(=O)[C@H](C)N(C)C1=O [Myostatin_99_v380] ({CH2CO}-[Gly(N(CH2)3COOH)]A[Trp(1-Ph)]Y[NMeF]I[NMeA][Phe(3-OCH2COOH)][Phe(4-COOH)]R[NMeF][X1][NMeA][NMeF][dC]-OH; thioether N-15) | 100 | 100 | 0 | 0 | – | – | – | – | –
3 | CC[C@H](C)[C@@H]1NC(=O)[C@H](Cc2ccccc2)N(C)C(=O)[C@H](Cc2ccc(O)cc2)NC(=O)[C@H](Cc2c[nH]c3ccccc23)NC(=O)[C@H](CCCNC(=N)N)NC(=O)[C@H](C)NC(=O)CSC[C@@H](C(N)=O)N(C)C(=O)[C@H](Cc2ccccc2)N(C)C(=O)[C@H](C)N(C)C(=O)[C@H](CC(C)C)NC(=O)[C@H](Cc2ccccc2)N(C)C(=O)[C@H](CCCNC(=N)N)NC(=O)[C@H](Cc2ccc(O)cc2)NC(=O)[C@H](Cc2ccc(O)cc2)NC(=O)CN(C)C1=O [Myostatin_000099_15meC] ({CH2CO}-ARWY[NMeF]I[Sar]YYR[NMeF]L[NMeA][NMeF][NMeC]-NH2; thioether N-15) | – | – | – | – | 50 | 75 | 0 | 4 | –
4 | CCCCCCCCCC[C@@H]1NC(=O)[C@H](Cc2ccccc2)N(C)C(=O)[C@H](CCCNC(=N)N)NC(=O)[C@H](Cc2ccc(C(=O)O)cc2)NC(=O)[C@H](Cc2cccc(OCC(=O)O)c2)NC(=O)[C@H]2CCCN2C(=O)[C@H]([C@@H](C)CC)NC(=O)[C@H](Cc2ccccc2)N(C)C(=O)[C@H](Cc2ccc(O)cc2)NC(=O)[C@H](Cc2ccc(-c3ccc(S(C)(=O)=O)cc3)cc2)NC(=O)[C@H](C)NC(=O)[C@H](C)NC(=O)CSC[C@H](C(=O)N2CCC(CCC(N)=O)CC2)NC(=O)[C@H](Cc2ccccc2)N(C)C(=O)[C@H](CCC(=O)O)N(C)C1=O [Myostatin_99_v345] ({CH2CO}-AA[X6]Y[NMeF]I[dP][Phe(3-OCH2COOH)][Phe(4-COOH)]R[NMeF][Gly(decyl)][NMeE][NMeF][dC]-{Piperidine(4-CH2CH2CONH2)}; thioether N-15) | – | – | – | – | – | – | – | – | inhibition at 0.03 µM [1, 9]: 100%; inhibition at 0.1 µM [1, 9]: 100%; inhibition ([2]; HepG2, read-out: inhibition rate (GDF-11 inhibition assay), Table 7-3/7-4, GDF-11 10 ng/mL, peptide at the higher of the 2 concentrations): 70%; inhibition ([2]; HepG2, read-out: inhibition rate (GDF-11 inhibition assay), Table 7-3/7-4, GDF-11 10 ng/mL, peptide at the lower of the 2 concentrations): 7%

Continued, in another order:

Row | inhibition at 0.1 µM [1, 3] [%] | inhibition at 0.03 µM [1, 4] [%] | inhibition [2, 5] [%] | inhibition [2, 6] [%] | inhibition at 0.03 µM [1, 7] [%] | inhibition at 0.1 µM [1, 8] [%] | inhibition at 0.03 µM [2] [%] | inhibition at 0.1 µM [2] [%] | SMILES | also measured
5 | 100 | 100 | 0 | 0 | – | – | – | – | CCCCCCC[C@@H]1NC(=O)[C@H](Cc2ccccc2)N(C)C(=O)[C@H](CCCNC(=N)N)NC(=O)[C@H](Cc2ccc(C(=O)O)cc2)NC(=O)[C@H](Cc2cccc(OCC(=O)O)c2)NC(=O)[C@H](C)N(C)C(=O)[C@H]([C@@H](C)CC)NC(=O)[C@H](Cc2ccccc2)N(C)C(=O)[C@H](Cc2ccc(O)cc2)NC(=O)[C@H](Cc2c[nH]c3ccccc23)NC(=O)[C@H](C)NC(=O)CN(CCCC(=O)O)C(=O)CSC[C@H](C(=O)N2CCC(CC(=O)O)CC2)NC(=O)[C@H](Cc2ccccc2)N(C)C(=O)[C@H](C)N(C)C1=O [Myostatin_99_v430] ({CH2CO}-[Gly(N(CH2)3COOH)]AWY[NMeF]I[NMeA][Phe(3-OCH2COOH)][Phe(4-COOH)]R[NMeF][X1][NMeA][NMeF][dC]-{Piperidinyl(4-CH2COOH)}; thioether N-15) | –
6 | – | – | – | – | 18 | 58 | 0 | 0 | CCCCC[C@@H]1NC(=O)[C@H](Cc2ccccc2)N(C)C(=O)[C@H](CCCNC(=N)N)NC(=O)[C@H](Cc2ccc(C(=O)O)cc2)NC(=O)[C@H](Cc2cccc(OCC(=O)O)c2)NC(=O)CN(C)C(=O)[C@H]([C@@H](C)CC)NC(=O)[C@H](Cc2ccccc2)N(C)C(=O)[C@H](Cc2ccc(O)cc2)NC(=O)[C@H](Cc2c[nH]c3ccccc23)NC(=O)[C@H](C)NC(=O)CN(CCC(N)=O)C(=O)CSC[C@H](C(=O)O)NC(=O)[C@H](Cc2ccccc2)N(C)C(=O)[C@H](C)N(C)C1=O [Myostatin_99_v242] ({CH2CO}-[Gly(Nα-CH2CH2CONH2)]AWY[NMeF]I[Sar][Phe(3-OCH2COOH)][Phe(4-COOH)]R[NMeF][Ahp(2)][NMeA][NMeF][dC]-OH; thioether N-15) | –
7 | – | – | – | – | 100 | 100 | 65 | 92 | CCCCCCCCCC[C@@H]1NC(=O)[C@H](CC2CCCCC2)NC(=O)[C@H](CCCNC(=N)N)NC(=O)[C@H](Cc2ccc(C(=O)O)cc2)NC(=O)[C@H](CCCCNC(=O)N2CCN(CC(=O)O)CC2)NC(=O)CN(C)C(=O)[C@H]([C@@H](C)CC)NC(=O)[C@H](Cc2ccccc2)N(C)C(=O)[C@H](Cc2ccc(O)cc2)NC(=O)[C@H](Cc2c[nH]c3ccccc23)NC(=O)[C@@H](CCCCNC(=O)N2CCN(CC(=O)O)CC2)NC(=O)[C@H](C)NC(=O)CSC[C@H](C(=O)N2CCN(CC(=O)O)CC2)NC(=O)[C@H](Cc2ccccc2)N(C)C(=O)[C@H](C)N(C)C1=O [Myostatin_99_v268] ({CH2CO}-A[dK]([CO-Piperazinyl(4-CH2COOH)])WY[NMeF]I[Sar]K([CO-Piperazinyl(4-CH2COOH)])[Phe(4-COOH)]R[Cha][Gly(decyl)][NMeA][NMeF][dC]-{Piperazinyl(4-CH2COOH)}; thioether N-15) | –
8 | – | – | – | – | 58 | 83 | 0 | 9 | CC[C@H](C)[C@@H]1NC(=O)[C@H](Cc2ccccc2)N(C)C(=O)[C@H](Cc2ccc(O)cc2)NC(=O)[C@H](Cc2c[nH]c3ccccc23)NC(=O)[C@H](CCC(=O)O)NC(=O)[C@H](C)NC(=O)CSC[C@@H](C(N)=O)NC(=O)[C@H](Cc2ccccc2)N(C)C(=O)[C@H](C)N(C)C(=O)[C@H](CC(C)C)NC(=O)[C@H](Cc2ccccc2)N(C)C(=O)[C@H](CCCNC(=N)N)NC(=O)[C@H](Cc2ccc(O)cc2)NC(=O)[C@H](Cc2ccc(O)cc2)NC(=O)CN(C)C1=O [Myostatin_000099_02E] ({CH2CO}-AEWY[NMeF]I[Sar]YYR[NMeF]L[NMeA][NMeF]C-NH2; thioether N-15) | –
